Assay results as given in the supplement of paper PMC13380429.

Tests used:
Details in all cases: 72 h
HepG2 [1] = test: relative viability EC50 (midpoint between 100% and the lowest measured viability); higher = less toxic
Caco-2 [2] = test: as above
Vero E6 [3] = test: as above
U2OS [4] = test: as above
Calu-3 [5] = test: as above
HepG2 [6] = test: drug sensitivity score (DSS) for viability; higher = more toxic; extreme values may be limits of the assay
Caco-2 [7] = test: as above
Vero E6 [8] = test: as above
U2OS [9] = test: as above
Calu-3 [10] = test: as above
HepG2 [11] = test: cell viability relative to DMSO; higher = less toxic
Caco-2 [12] = test: as above
Vero E6 [13] = test: as above
U2OS [14] = test: as above
Calu-3 [15] = test: as above

| SMILES | relative viability EC50 (HepG2 [1]) [µM] | relative viability EC50 (Caco-2 [2]) [µM] | relative viability EC50 (Vero E6 [3]) [µM] | relative viability EC50 (U2OS [4]) [µM] | relative viability EC50 (Calu-3 [5]) [µM] | drug sensitivity score (HepG2 [6]) | drug sensitivity score (Caco-2 [7]) | drug sensitivity score (Vero E6 [8]) | drug sensitivity score (U2OS [9]) | drug sensitivity score (Calu-3 [10]) | cell viability (HepG2 [11]; 1 nM) [%] | cell viability (HepG2 [11]; 10 nM) [%] | cell viability (HepG2 [11]; 100 nM) [%] | cell viability (HepG2 [11]; 1000 nM) [%] | cell viability (HepG2 [11]; 10000 nM) [%] | cell viability (Caco-2 [12]; 1 nM) [%] | cell viability (Caco-2 [12]; 10 nM) [%] | cell viability (Caco-2 [12]; 100 nM) [%] | cell viability (Caco-2 [12]; 1000 nM) [%] | cell viability (Caco-2 [12]; 10000 nM) [%] | cell viability (Vero E6 [13]; 1 nM) [%] | cell viability (Vero E6 [13]; 10 nM) [%] | cell viability (Vero E6 [13]; 100 nM) [%] | cell viability (Vero E6 [13]; 1000 nM) [%] | cell viability (Vero E6 [13]; 10000 nM) [%] | cell viability (U2OS [14]; 1 nM) [%] | cell viability (U2OS [14]; 10 nM) [%] | cell viability (U2OS [14]; 100 nM) [%] | cell viability (U2OS [14]; 1000 nM) [%] | cell viability (U2OS [14]; 10000 nM) [%] | cell viability (Calu-3 [15]; 1 nM) [%] | cell viability (Calu-3 [15]; 10 nM) [%] | cell viability (Calu-3 [15]; 100 nM) [%] | cell viability (Calu-3 [15]; 1000 nM) [%] | cell viability (Calu-3 [15]; 10000 nM) [%] |
| --- | --- | --- | --- | --- | --- | --- | --- | --- | --- | --- | --- | --- | --- | --- | --- | --- | --- | --- | --- | --- | --- | --- | --- | --- | --- | --- | --- | --- | --- | --- | --- | --- | --- | --- | --- |
| CCOc1ccc(C[C@H]2NC(=O)CCSSC[C@@H](C(=O)N3CCC[C@H]3C(=O)N[C@@H](CCCN)C(=O)NCC(N)=O)NC(=O)[C@H](CC(N)=O)NC(=O)[C@H]([C@@H](C)O)NC(=O)[C@H]([C@@H](C)CC)NC2=O)cc1 [atosiban] | > 10 | > 10 | > 10 | > 10 | > 10 | 0 | 0 | 0 | 0 | 0 | 107 | 99.5 | 92.8 | 90.4 | 97.4 | 93.1 | 108 | 102 | 102 | 91.8 | 102 | 96.2 | 110 | 102 | 100 | 100 | 99.1 | 94.9 | 100 | 98.7 | 103 | 105 | 103 | 118 | 98.9 |
| COc1ccc2cc1Oc1cc3c(cc1OC)CC[N+](C)(C)[C@H]3Cc1ccc(cc1)Oc1c(OC)c(OC)cc3c1[C@@H](C2)[N+](C)(C)CC3 [metocurine] | > 10 | > 10 | > 10 | > 10 | > 10 | 0 | 0 | 0 | 0 | 0 | 93.3 | 115 | 86.2 | 108 | 111 | 95.7 | 92.2 | 94.8 | 108 | 105 | 91.5 | 96.8 | 91.6 | 102 | 105 | 97.6 | 99.3 | 106 | 102 | 99.4 | 102 | 88.4 | 105 | 96.5 | 93.2 |
| CC(C)N1Cc2cc(S(C)(=O)=O)ccc2N(CCN2CC=C(c3c[nH]c4cc(F)ccc34)CC2)S1(=O)=O | > 10 | > 10 | > 10 | > 10 | > 10 | 0 | 0 | 0 | 0 | 0 | 99.9 | 107 | 95.8 | 105 | 100 | 98.3 | 98.8 | 102 | 91.2 | 104 | 89.6 | 97.7 | 94.1 | 94.7 | 97.6 | 99.9 | 99.1 | 103 | 95.8 | 95.2 | 98.6 | 99.3 | 92.7 | 107 | 110 |
| CCCN(CCC)[C@H]1CCc2cccc(O)c2C1 [8-hydroxy-DPAT] | > 10 | > 10 | > 10 | > 10 | > 10 | 0 | 0 | 0 | 0 | 0 | 102 | 102 | 93.6 | 109 | 92.2 | 101 | 101 | 98 | 98.8 | 101 | 97 | 94.5 | 99.2 | 89.3 | 104 | 96.9 | 98 | 99.1 | 102 | 99.9 | 99.2 | 105 | 97.4 | 101 | 102 |
| CC(C)C(=O)c1ccc(O)c(O)c1 [U-0521] | > 10 | > 10 | > 10 | > 10 | > 10 | 0 | 0.5 | 0 | 0 | 0 | 96.3 | 77.3 | 109 | 114 | 105 | 98.6 | 102 | 101 | 88 | 97 | 108 | 104 | 102 | 97.6 | 92.9 | 99.8 | 95.4 | 100 | 97.3 | 93.6 | 102 | 96.9 | 102 | 94.4 | 97.4 |
| CC(C)NCCCn1c(Sc2cc3c(cc2I)OCO3)nc2c(N)ncnc21 [PU-H71] | 0.186 | 1.02 | 2.27 | 0.686 | 0.634 | 20.8 | 6.2 | 4.9 | 12.9 | 8.5 | 101 | 95.3 | 82.8 | 0.3 | 0.4 | 89.9 | 104 | 106 | 74 | 47.1 | 102 | 105 | 105 | 92.8 | 33.2 | 94.4 | 97.5 | 95.6 | 37.8 | 3.8 | 97.7 | 107 | 100 | 55.3 | 41.1 |
| CC1(C)OC(=O)C(OCC2CC2)=C1c1ccc(S(C)(=O)=O)cc1 [firocoxib] | > 10 | > 10 | > 10 | > 10 | > 10 | 0 | 3.5 | 0 | 0 | 0 | 105 | 97.7 | 104 | 103 | 101 | 98.3 | 91.8 | 84.1 | 83.4 | 86.5 | 100 | 101 | 99.2 | 96.4 | 98.2 | 96.7 | 107 | 95.3 | 97.2 | 102 | 95.9 | 93.2 | 95.6 | 110 | 104 |
